target: human DGAT2 (hDGAT2) (Homo sapiens (Human), UniProt Q96PD7); assay: DGAT2 Enzymatic Activity Assay; format: biochemical; settings: hDGAT2 Sf-9 membrane prep; 13C18-triolein product by LC/MS/MS; 25 μM diolein, 5 μM 13C oleoyl-CoA
Summary of the method: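 Enzyme source was membrane fractions from Sf-9 cells infected with untagged hDGAT2 baculovirus. Reactions ran at room temperature, and product 13C18-triolein was quantified by LC/MS/MS against a 13C21-triolein internal standard. % inhibition was normalised to high and low controls, and IC50 derived from it.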

Chain of human DGAT2 (hDGAT2) (Q96PD7 whole entry): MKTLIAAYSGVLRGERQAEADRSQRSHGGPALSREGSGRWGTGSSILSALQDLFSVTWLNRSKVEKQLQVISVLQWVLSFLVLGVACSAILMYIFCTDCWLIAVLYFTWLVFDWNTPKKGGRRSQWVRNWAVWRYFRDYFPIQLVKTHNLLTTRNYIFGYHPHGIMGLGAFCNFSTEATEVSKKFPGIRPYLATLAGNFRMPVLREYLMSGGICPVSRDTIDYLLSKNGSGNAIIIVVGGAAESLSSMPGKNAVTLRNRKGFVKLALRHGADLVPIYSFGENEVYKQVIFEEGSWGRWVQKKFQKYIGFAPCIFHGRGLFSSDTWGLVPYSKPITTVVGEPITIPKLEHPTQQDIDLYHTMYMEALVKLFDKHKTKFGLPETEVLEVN

Q: How did the IC50 turn out when `CC(C)n1nc(-c2cc(OC(F)F)ccc2F)c2c1CC(C(=O)N[C@@]1(C)CCS(=O)(=O)C1)CO2` (stereo partly drawn) [Example 122, 3-(5-(difluoromethoxy)-2-fluorophenyl)-1-isopropyl-N-((S)-3-methyl-1,1-dioxidotetrahydrothiophen-3-yl)-1,5,6,7-tetrahydropyrano[3,2-c]pyrazole-6-carboxamide] was run?
A: The IC50 was 5.8 nM.

Q: `CC(C)n1nc(-c2cc(OC(F)F)ccc2F)c2c1CC(C(=O)N[C@]1(C)CCS(=O)(=O)C1)CO2` (stereo partly drawn) [Example 123, 3-(5-(difluoromethoxy)-2-fluorophenyl)-1-isopropyl-N-((R)-3-methyl-1,1-dioxidotetrahydrothiophen-3-yl)-1,5,6,7-tetrahydropyrano[3,2-c]pyrazole-6-carboxamide] was tested. Which IC50 did it give?
A: The IC50 was 24.3 nM.

Q: Which IC50 does the source give for `CC(C)n1nc(-c2cccc(C3CC3)c2)c2c1C[C@H](C(=O)NC1(C)CS(=O)(=O)C1)CO2` [Example 125, (S)-3-(3-cyclopropylphenyl)-1-isopropyl-N-(3-methyl-1,1-dioxidothietan-3-yl)-1,5,6,7-tetrahydropyrano[3,2-c]pyrazole-6-carboxamide] here?
A: The IC50 was 22.2 nM.

Q: Which IC50 does the source give for `CC(C)n1nc(-c2cc(OC(F)F)ccc2F)c2c1C[C@H](C(=O)NC1(C)CS(=O)(=O)C1)OC2` [Example 127, (R)-3-(5-(difluoromethoxy)-2-fluorophenyl)-1-isopropyl-N-(3-methyl-1,1-dioxidothietan-3-yl)-1,4,6,7-tetrahydropyrano[4,3-c]pyrazole-6-carboxamide] here?
A: Its IC50 is 343 nM.

Q: Which IC50 does the source give for `CC(C)n1nc(-c2cc(C3CC3)ccc2F)c2c1C[C@H](C(=O)NC1(C)CS(=O)(=O)C1)OC2` [Example 128, (R)-3-(5-cyclopropyl-2-fluorophenyl)-1-isopropyl-N-(3-methyl-1,1-dioxidothietan-3-yl)-1,4,6,7-tetrahydropyrano[4,3-c]pyrazole-6-carboxamide] here?
A: Its IC50 is 320 nM.

same assay, conditions: unit given as nm; hDGAT2 Sf-9 membrane prep; 13C18-triolein product by LC/MS/MS

Q: With `CC1(NC(=O)C2COc3c(-c4cccc(OC(F)F)c4)nn(-c4ccc(F)cn4)c3C2)CCS(=O)(=O)C1` (stereo not drawn) [Example 118, 3-(3-(difluoromethoxy)phenyl)-1-(5-fluoropyridin-2-yl)-N-(3-methyl-1,1-dioxidotetrahydrothiophen-3-yl)-1,5,6,7-tetrahydropyrano[3,2-c]pyrazole-6-carboxamide] as the molecule, how does the IC50 read?
A: The IC50 was 0.44 nM.

Source: patent US20240140938A1, “PREPARATION OF TETRAHYDROINDAZOLE DERIVATIVES AS NOVEL DIACYLGLYCERIDE O-ACYLTRANSFERASE 2 INHIBITORS” (MERCK SHARP & DOHME LLC, priority 2020, published 2024)
